According to the supplement of paper PMC11451515:

Assays:
Conditions in all cases: 48 h
NOMO1 [1] = test: cell viability relative to DMSO control; higher = less cytotoxic
In short: (§1)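 Viability is a per-plate percentage relative to DMSO wells, with cell-free wells as background. CellTiter-Glo One luminescence was read after 48 h at 37°C on 1536-well plates (5 μl) of NOMO1 or SEM (500 cells/well) or P12-Ichikawa (1000 cells/well) leukemia cells. The cells had been adapted for at least four passages in each medium and pin-dosed with library compounds in DMSO from 47 μM to 0.79 nM in 11 threefold steps.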

P12-Ichikawa [2] = test: as above
In short: as §1

SEM cells [3] = test: as above
In short: as §1

NOMO1 [4] = test: AUC of viability dose-response curve (% viability x log10 dose units); higher = less sensitive
In short: (§2)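 Seeding of medium-adapted leukemia cells was at 500 or 1000 cells/well in 1536-well plates, followed by 48 h at 37°C with library compounds in DMSO at 11 threefold doses from 47 μM to 0.79 nM. CellTiter-Glo One luminescence was normalised per plate to DMSO and cell-free wells and fitted as a four-parameter log-logistic function of log10 dose. Area under the curve was integrated by trapezoidal rule, with curves exceeding full viability scaled and curves failing quality control removed.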

P12-Ichikawa [5] = test: as above
In short: as §2

SEM cells [6] = test: as above
In short: as §2

C[N+]1(C)[C@@H]2C[C@@H](OC(=O)[C@H](CO)c3ccccc3)C[C@H]1[C@@H]1O[C@@H]12.[Br-]
cell viability [%]
Conditions | NOMO1 [1] | P12-Ichikawa [2] | SEM cells [3]
HPLM + 10% dialyzed FBS, 0.000781 µM | 91.9 | 88.6 | 85
HPLM + 10% dialyzed FBS, 0.00234 µM | 95.1 | 94.2 | 94.6
HPLM + 10% dialyzed FBS, 0.00702 µM | 108 | 94.3 | 96.1
HPLM + 10% dialyzed FBS, 0.0211 µM | 113 | 102 | 93.9
HPLM + 10% dialyzed FBS, 0.0632 µM | 105 | 104 | 105
HPLM + 10% dialyzed FBS, 0.19 µM | 99.4 | 104 | 102
HPLM + 10% dialyzed FBS, 0.569 µM | 86.5 | 96.9 | 110
HPLM + 10% dialyzed FBS, 1.71 µM | 93.5 | 90.8 | 117
HPLM + 10% dialyzed FBS, 5.12 µM | 99.5 | 100 | 103
HPLM + 10% dialyzed FBS, 15.4 µM | 89.2 | 106 | 114
HPLM + 10% dialyzed FBS, 46.1 µM | 101 | 102 | 102
RPMI 5 mM glucose + 10% FBS, 0.000781 µM | 95.5 | 95 | 92.3
RPMI 5 mM glucose + 10% FBS, 0.00234 µM | 91.8 | 103 | 90.4
RPMI 5 mM glucose + 10% FBS, 0.00702 µM | 86.6 | 105 | 102
RPMI 5 mM glucose + 10% FBS, 0.0211 µM | 89.4 | 99.1 | 95.1
RPMI 5 mM glucose + 10% FBS, 0.0632 µM | 85 | 108 | 100
RPMI 5 mM glucose + 10% FBS, 0.19 µM | 88.5 | 99.2 | 92
RPMI 5 mM glucose + 10% FBS, 0.569 µM | 86.9 | 101 | 107
RPMI 5 mM glucose + 10% FBS, 1.71 µM | 90.3 | 98.7 | 112
RPMI 5 mM glucose + 10% FBS, 5.12 µM | 90.4 | 97.8 | 105
RPMI 5 mM glucose + 10% FBS, 15.4 µM | 86.1 | 122 | 93.3
RPMI 5 mM glucose + 10% FBS, 46.1 µM | 86.8 | 110 | 89.5
RPMI 5 mM glucose + 10% dialyzed FBS, 0.000781 µM | 83 | 82.4 | 77.3
RPMI 5 mM glucose + 10% dialyzed FBS, 0.00234 µM | 90.5 | 47.6 | 87.2
RPMI 5 mM glucose + 10% dialyzed FBS, 0.00702 µM | 86.9 | 90.7 | 109
RPMI 5 mM glucose + 10% dialyzed FBS, 0.0211 µM | 91 | 90.7 | 98.6
RPMI 5 mM glucose + 10% dialyzed FBS, 0.0632 µM | 91.6 | 97.8 | 105
RPMI 5 mM glucose + 10% dialyzed FBS, 0.19 µM | 90.8 | 99.5 | 107
RPMI 5 mM glucose + 10% dialyzed FBS, 0.569 µM | 91.6 | 101 | 112
RPMI 5 mM glucose + 10% dialyzed FBS, 1.71 µM | 97.2 | 89.9 | 105
RPMI 5 mM glucose + 10% dialyzed FBS, 5.12 µM | 107 | 91.2 | 121
RPMI 5 mM glucose + 10% dialyzed FBS, 15.4 µM | 89 | 99.6 | 103
RPMI 5 mM glucose + 10% dialyzed FBS, 46.1 µM | 98.7 | 103 | 101

AUC of viability dose-response curve
Conditions | NOMO1 [4] | P12-Ichikawa [5] | SEM cells [6]
HPLM + 10% dialyzed FBS | 457 | 456 | 448
RPMI 5 mM glucose + 10% FBS | 423 | 424 | 467
RPMI 5 mM glucose + 10% dialyzed FBS | 442 | 435 | 462

CC(C)C[C@H](NC(=O)CNC(=O)c1cc(Cl)ccc1Cl)B1OC(=O)CC(CC(=O)O)(C(=O)O)O1 (some centres undefined)
cell viability [%], SEM cells [3]
Conditions | HPLM + 10% dialyzed FBS | RPMI 5 mM glucose + 10% FBS
0.000781 µM | 101 | 120
0.00234 µM | 120 | 132
0.00702 µM | 125 | 124
0.0211 µM | 145 | 125
0.0632 µM | 128 | 99.9
0.19 µM | 16 | 13.3
0.569 µM | 8.29 | 8.91
1.71 µM | 7.41 | 8.18
5.12 µM | 5.78 | 6.61
15.4 µM | 4.49 | 4.78
46.1 µM | 4.53 | 4.54

AUC of viability dose-response curve
Conditions | NOMO1 [4] | P12-Ichikawa [5] | SEM cells [6]
HPLM + 10% dialyzed FBS | 276 | 270 | 231
RPMI 5 mM glucose + 10% FBS | 278 | 269 | 221
RPMI 5 mM glucose + 10% dialyzed FBS | 280 | 269 | 235
